Test results: PMC9504587, “Cytotoxic Drimane-Type Sesquiterpenes from Co-Culture of the Marine-Derived Fungi Aspergillus carneus KMM 4638 and Beauveria felina (=Isaria felina) KMM 4639” (Marine Drugs, 2022)
Values after ≈ are worked out from the molar mass of the structure shown. Like-named read-outs stand apart in the source and are kept apart here.

Legend:
[1] = test system: normal rat cardiomyocyte H9c2 cell line; experiment: MTT cytotoxicity assay, H9c2 cells; assay type: cell-based; conditions: 24 h incubation, mean ± SEM
Method: (§1) PC-3, MCF-7, C6, and H9c2 cells were cultured in DMEM medium (Biolot, St. Petersburg, Russia) containing 10% fetal bovine serum (Biolot, St. Petersburg, Russia) and 1% penicillin/streptomycin (Biolot, St. Petersburg, Russia) at 37 °C in a humidified atmosphere with 5% (v/v) CO2. The Raji cells were cultured in RPMI-1640 medium (Biolot, St. Petersburg, Russia) containing 10% fetal bovine serum (Biolot, St. Petersburg, Russia) and 1% penicillin/streptomycin (Biolot, St. Petersburg, Russia) under the same conditions.
(§2) Initially, cells were incubated in culture flasks until subconfluent (~80%). For testing, the cells were seeded at concentrations of 5 × 10^3 cells/well (PC-3, MCF-7, Raji, and C6 cells) or 3 × 10^3 cells/well (H9c2 cells), and experiments were started after 24 h.
(§3) The in vitro cytotoxicity of individual substances was determined by the MTT method (3-(4,5-dimethylthiazol-2-yl)-2,5-diphenyltetrazolium bromide), according to the manufacturer’s instructions (Sigma-Aldrich, St. Louis, MO, USA).
(§4) Investigated compounds were dissolved in DMSO at a concentration of 10 mM.
(§5) The cells were treated with the investigated compounds for 24 h or 48 h, and MTT reagent was added to each well of the plate. The vehicle with DMSO at a concentration of 1% was used as a control. The absorbance of formed formazan was measured at λ = 570 nm using a Multiskan FC microplate photometer (Thermo Scientific, Waltham, MA, USA) and expressed in optical units (o.u.). The results are presented as % of viable cells relative to vehicle, and 50% inhibition concentration of cell viability (IC50) was calculated.

[2] = test system: rat glioblastoma C6; experiment: MTT cytotoxicity assay, C6 cells; assay type: cell-based; conditions: 24 h incubation, mean ± SEM
Method: as §1, §2, §3, §4, §5

[3] = test system: human prostate cancer PC-3; experiment: MTT cytotoxicity assay, PC-3 cells; assay type: cell-based; conditions: 24 h incubation, mean ± SEM
Method: as §1, §2, §3, §4, §5

[4] = test system: human lymphoma Raji; experiment: MTT cytotoxicity assay, Raji cells; assay type: cell-based; conditions: 24 h incubation, mean ± SEM
Method: as §1, §2, §3, §4, §5

[5] = test system: human breast cancer MCF-7; experiment: MTT cytotoxicity assay, MCF-7 cells; assay type: cell-based
Method: as §1, §2, §3, §4, §5

[6] = test system: MCF-7 cells; experiment: Apoptosis profile by flow cytometry (Muse annexin V and dead cell kit); assay type: cell-based, human; conditions: 10 µM, 48 h
Method: After incubation, culture media were collected; then, cells were washed twice with cold PBS and incubated with trypsin-EDTA solution for 1 min. The cell suspension was washed twice by centrifugated at 250× g for 4 min with cold PBS and used for apoptosis detection by a Muse® annexin V and dead cell kit in accordance with manufacturer’s instructions (Luminex, Austin, TX, USA). Fluorescence was measured with a Muse® cell analyzer (Luminex, Austin, TX, USA), and data were processed by Muse 1.5 analysis software (Luminex, Austin, TX, USA). The proportion of apoptotic cells was expressed as a percentage.

[7] = test system: MCF-7 cells; experiment: Total caspase activity by flow cytometry (Muse multicaspase kit); assay type: cell-based, human; conditions: 10 µM, 48 h; control 4.7%
Method: The influence of the compounds on the percentage of live MCF-7 cells (caspase−/7-AAD−), live MCF-7 cells with caspase activity (caspase+/7-AAD−), dead MCF-7 cells with caspase activity […] MCF-7 cells (caspase−/7-AAD+) was measured by a Muse® multicaspase kit (Luminex, Austin, TX, USA). The kit utilizes a VAD-peptide derivatized with a fluorescent group called fluorescent-labeled inhibitor of caspases (FLICA). The peptide binds to activated caspases, resulting in a fluorescent signal proportional to the number of active caspases in the cell. Fluorescent dye 7-AAD was used as a dead cell marker in this assay.
After incubation, culture media were collected, and cells were washed twice with cold PBS and incubated in trypsin-EDTA solution for 1 min. The cell suspension was washed twice by centrifugation at 250× g for 4 min with cold PBS and then used for caspase activity detection by a Muse® multicaspase kit (caspases 1, 3, 4, 5, 6, 7, 8, and 9) in accordance with manufacturer’s instructions (Luminex, Austin, TX, USA). Fluorescence was measured with a Muse® cell analyzer (Luminex, Austin, TX, USA), and data were processed by Muse 1.5 analysis software (Luminex, Austin, TX, USA).

[8] = test system: MCF-7 cells; experiment: Cell cycle analysis by flow cytometry (propidium iodide); assay type: cell-based, human; conditions: 10 µM, 48 h
Method: After incubation, cells were trypsinized, harvested, washed with PBS, and fixed with ice-cold 70% ethanol in a dropwise manner prior to storage at −20 °C overnight. The cells were then washed with PBS, incubated with 200 μg/mL RNAse (PanReac, AppliChem, Darmstadt, Germany) and 20 μg/mL of propidium iodide (Sigma-Aldrich, St. Louis, MO, USA) for 30 min at 37 °C, and the DNA content was analyzed with a Muse® cell analyzer (Luminex, Austin, TX, USA). The data were processed by Muse 1.5 analysis software (Luminex, Austin, TX, USA). The proportion of cells in each phase of the cell cycle was expressed as a percentage.

[9] = test system: H9c2, C6, PC-3, Raji and MCF-7 cells; experiment: MTT cytotoxicity, summary statements over several cell lines; assay type: cell-based; conditions: 24 h, range over both compounds and three cell lines
Method: as §3, §4, §5

[10] = test system: human leukemia HL-60 cells; set-up: method as in PMID 19769341; conditions: read-out: IC50, HL-60 cell viability; cited from earlier work
[11] = test system: human lung cancer A549 cells; set-up: method as in PMID 19769341; conditions: cited from earlier work
[12] = test system: lymphoma L5178Y; set-up: method as in PMID 19778087; conditions: cited from earlier work
[13] = test system: PC 12; set-up: method as in PMID 19778087; conditions: cited from earlier work
[14] = test system: HeLa cells; set-up: method as in PMID 19778087; conditions: cited from earlier work
[15] = molecular target: PTP1B; set-up: method as in earlier work; conditions: cell-free assay; cited from earlier work
[16] = molecular target: SHP2; set-up: method as in earlier work; conditions: cell-free assay; cited from earlier work
[17] = test system: murine leukemia P388 cells; set-up: method as in PMID 21628915; conditions: read-out: IC50, P388 cell viability; cited from earlier work
[18] = test system: Ceratobasidium cornigerum; set-up: method as in PMID 32605151; conditions: cited from earlier work
[19] = test system: Edwardsiella tarda; set-up: method as in PMID 32605151; conditions: cited from earlier work
[20] = test system: human histiocytic lymphoma U937 cell line; set-up: method as in PMID 27936301; conditions: cited from earlier work
[21] = Homo sapiens, MCF7, 24 h, 24 h incubation, mean ± SEM, read-out: IC50, MCF-7

## CC1(C)CCC[C@@]2(C)[C@H]1[C@H](OC(=O)/C=C/C=C/C=O)C=C1COC(=O)[C@@]12O [Compound 9, ustusolate E]
[1]; Rattus norvegicus, H9c2, 24 h
  IC50: 66.9 ± 3 µM
[2]; Rattus norvegicus, C6, 24 h
  IC50: 54.3 ± 3.3 µM
[3]; Homo sapiens, PC-3, 24 h
  IC50: 50.1 ± 1.8 µM
[4]; Homo sapiens, Raji, 24 h
  IC50: 88.1 ± 1.3 µM
[5]; 10 µM, 48 h
  decrease in MCF-7 cell viability: ~50%
[5]; 48 h incubation, concentrations up to 10 µM, read-out: IC50, MCF-7 cell viability, prolonged incubation
  IC50: 10.1 ± 0.5 µM
[5]; [21]
  IC50: 57.8 ± 0.5 µM
[5]; Homo sapiens, MCF7, 48 h, 48 h incubation, concentrations up to 10 µM, read-out: IC50, MCF-7 cell viability, prolonged incubation
  IC50: 10 µM
[6]; control 1.7%
  amount of apoptotic cells (early and late): 6.8%
[6]; control 98.6%
  amount of living cells: 94.1%
[7]
  percentage of cells exhibiting caspase activity (living and 7-AAD-labeled): 12.4%
[8]; control 5.4%
  subG0 cells: 24.7%
[8]; relative to control
  decrease in the percentage of cells in the S phase: 41.2%
  increase of the percentage of cells in the G2/M phase: 67.3%
  reduction of the percentage of cells in the G0/G1 phase: 33.3%
[8]; versus control
  increase of the subG0 population of cells: 4.6 times
[9]
  IC50: 54.3 to 88.1 µM
[10]
  IC50: 8 µM
[11]
  toxicity against A549 cells: nontoxic
[12]
  IC50: 1.6 µM
[13]
  IC50: 19.3 µM
[14]
  IC50: 15.8 µM
[15]
  IC50, PTP1B enzyme activity: 50 µg/mL (≈ 134 µM)
[16]
  IC50, SHP2 enzyme activity: 40 µg/mL (≈ 107 µM)

## CC(O)C(=O)/C=C/C=C/C(=O)O[C@@H]1C=C2COC(=O)[C@]2(O)[C@@]2(C)CCCC(C)(C)[C@H]12 (stereo partly shown) [Compound 10, (6-strobilactone A) ester of (E,E)-6-carbonyl-7-hydroxy-2,4-octadienoic acid]
[1]; Rattus norvegicus, H9c2, 24 h
  IC50: 61.9 ± 0.5 µM
[2]; Rattus norvegicus, C6, 24 h
  IC50: > 100 µM
[3]; Homo sapiens, PC-3, 24 h
  IC50: 57.8 ± 1.1 µM
[4]; Homo sapiens, Raji, 24 h
  IC50: 95.3 ± 0.8 µM
[5]; [21]
  IC50: 55.1 ± 1.4 µM
[17]
  IC50: 8.7 µM

## CC(O)C(O)/C=C/C=C/C(=O)O[C@@H]1C=C2COC(=O)[C@]2(O)[C@@]2(C)CCCC(C)(C)[C@H]12 (stereo partly shown) [Compound 11, (6-strobilactone A) esters of (E,E)-6,7-dihydroxy-2,4-octadienoic acid]
[1]; Rattus norvegicus, H9c2, 24 h
  IC50: > 100 µM
[2]; Rattus norvegicus, C6, 24 h
  IC50: > 100 µM
[3]; Homo sapiens, PC-3, 24 h
  IC50: > 100 µM
[4]; Homo sapiens, Raji, 24 h
  IC50: 96.9 ± 1.6 µM
[5]; [21]
  IC50: 83.5 ± 1.7 µM

## CC(O)C(O)/C=C/C=C/C(=O)O[C@@H]1C=C2COC(=O)[C@]2(O)[C@@]2(C)CCCC(C)(C)[C@H]12 (stereo partly shown) [Compound 12, (6-strobilactone A) esters of (E,E)-6,7-dihydroxy-2,4-octadienoic acid]
[1]
  IC50: > 100 µM
[2]
  IC50: > 100 µM
[3]
  IC50: > 100 µM
[4]
  IC50: 97.5 ± 0.9 µM
[5]; 24 h incubation, mean ± SEM, read-out: IC50, MCF-7
  IC50: 81.7 ± 0.9 µM

## C=C(C)[C@H]1[C@H](OC(C)=O)C[C@H](C)[C@@]12CC=C(C)[C@@H](OC(=O)CCCCCCCC=CCC=CCCCCC)C2 [chermebilaene A]
[18]
  MIC, Ceratobasidium cornigerum: 0.5 µg/mL (≈ 0.925 µM)
[19]
  MIC, Edwardsiella tarda: 0.25 µg/mL (≈ 0.462 µM)

## aluminumneohydroxyaspergillin
[20]
  IC50: 4.2 µM
